# Like-named read-outs stand apart in the source and are kept apart here.
# Tests used:
# MMP-3 [1] = biological target: T1, MMP-3 (Homo sapiens, UniProt P08254); test: Automated MMP Profiling Assay, MMP-3 fluorogenic; type: biochemical; conditions: 96-well automated, P218
# T1 construct: Truncated Prostromelysin-257 was expressed in a soluble form in E.coli; made in house; host or cells: E. coli
# Excerpt: This assay with each invention compound was run with the three enzymes MMP-3, MMP-9 and MMP-2 in parallel as adapted for a 96-well microtitre plate using a Hamilton A® workstation.
# Femoral Lesion = test: Inhibition of Cartilage Lesions in a Guinea Pig Model of Osteoarthritis; type: in vivo; conditions: 15 mg/kg oral gavage daily, 33 days, vs vehicle
# Experimental: Pathol. 1987 24, 444-448. Seven of the invention compounds were dissolved at 15 mg/ml in a vehicle of 10 mg/ml Tween 80, 190 mg/ml PEG and 0.44 mg/ml ethanolamine. This concentrate was diluted 1:1 with water before dosing (final concentration 7.5 mg/ml). On the 5th day before surgery, each animal received either a test compound plus vehicle or vehicle only administered by oral gavage each day at 15 mg/kg (2 ml/kg) up to surgery and then for four weeks post surgery (total 33 days of dosing). At the beginning of dosing and twice weekly thereafter the animals were weighed and the dose of the respective compounds or vehicles were calculated and adjusted if necessary. At the conclusion of the study the animals were euthanized by CO2 asphyxiation and their stifles removed, partially dissected and placed in 10% neutral buffered formalin. The extent of lesion development on the femoral head was measured by computer assisted surface area analysis.
# MMP-2 [2] = biological target: T2, MMP-2 (Homo sapiens, UniProt P08253); test: Automated MMP Profiling Assay, MMP-2 fluorogenic; type: biochemical; conditions: 96-well automated, P218; read-out: MMP-2 Fluorogenic IC50 (profiling)
# T2 sequence (P08253 110-660): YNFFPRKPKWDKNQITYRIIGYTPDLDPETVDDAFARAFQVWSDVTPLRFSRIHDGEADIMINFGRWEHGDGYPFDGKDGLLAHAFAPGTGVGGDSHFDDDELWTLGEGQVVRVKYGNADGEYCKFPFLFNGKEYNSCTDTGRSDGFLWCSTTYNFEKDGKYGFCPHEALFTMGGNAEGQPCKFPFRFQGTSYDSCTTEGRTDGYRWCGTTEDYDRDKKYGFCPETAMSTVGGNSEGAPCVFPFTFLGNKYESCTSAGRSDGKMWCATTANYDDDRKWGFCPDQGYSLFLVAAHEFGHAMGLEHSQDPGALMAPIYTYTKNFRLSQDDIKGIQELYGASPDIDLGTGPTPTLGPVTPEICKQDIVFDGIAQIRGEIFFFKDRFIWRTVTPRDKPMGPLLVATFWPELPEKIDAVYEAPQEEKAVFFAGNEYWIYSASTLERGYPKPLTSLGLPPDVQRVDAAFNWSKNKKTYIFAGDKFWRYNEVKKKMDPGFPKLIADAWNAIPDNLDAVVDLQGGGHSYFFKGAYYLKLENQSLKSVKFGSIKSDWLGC
# MMP-9 [3] = biological target: T3, MMP-9 (Homo sapiens, UniProt P14780); test: Automated MMP Profiling Assay, MMP-9 fluorogenic; type: biochemical; conditions: 96-well automated, P218
# T3 construct: from tissue; host or cells: human polymorphonuclear leukocytes (PMN) from whole blood (New York Blood Center), PMA-stimulated supernatant
# T3 sequence (P14780 107-707 limits assumed): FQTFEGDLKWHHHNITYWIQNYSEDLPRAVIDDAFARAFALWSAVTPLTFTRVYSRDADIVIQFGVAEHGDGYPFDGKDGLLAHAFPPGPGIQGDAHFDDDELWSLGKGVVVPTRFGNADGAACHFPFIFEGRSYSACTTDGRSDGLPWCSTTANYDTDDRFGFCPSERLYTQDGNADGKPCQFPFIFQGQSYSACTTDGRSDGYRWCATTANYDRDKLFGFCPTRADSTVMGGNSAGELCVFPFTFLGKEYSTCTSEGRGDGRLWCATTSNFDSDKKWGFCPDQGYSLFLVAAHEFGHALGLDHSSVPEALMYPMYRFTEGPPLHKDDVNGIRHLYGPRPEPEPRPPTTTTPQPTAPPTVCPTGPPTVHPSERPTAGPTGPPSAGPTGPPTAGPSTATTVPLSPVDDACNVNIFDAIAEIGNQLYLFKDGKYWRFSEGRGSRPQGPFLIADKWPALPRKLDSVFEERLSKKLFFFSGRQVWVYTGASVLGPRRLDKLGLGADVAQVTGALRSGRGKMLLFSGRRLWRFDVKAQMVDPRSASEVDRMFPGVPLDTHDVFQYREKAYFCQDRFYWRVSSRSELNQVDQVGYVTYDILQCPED
# MMP-3 [4] = biological target: T1, MMP-3; test: Primary Thiopeptilide MMP-3 Inhibition Assay; type: biochemical
# Experimental: Enzyme: recombinant stromelysin expressed in E.coli and purified as described above. […] The protocols for the assay of compounds as stromelysin inhibitors was the same as that used for MMP-9 except that the assay buffer was 50 mM MES, pH 6.5 containing 150 mM NaCl, 10 mM CaCl2, 0.005% Brij, and 1% DMSO.
# MMP = MMP inhibitory activity, comparison in words; type: biochemical
# MMP-3 [5] = biological target: T1, MMP-3; test: Secondary P218 Quenched fluorescence Assay for MMP-3 Inhibition; type: biochemical; conditions: P218 substrate, pH 6.5, 25° C.; x (n) = average of n determinations; read-out: MMP-3 Fluorogenic IC50
# Experimental: Truncated Prostromelysin-257 was expressed in a soluble form in E.coli as described by Marcy et al., Biochemistry, 30, 6476-6483, 1991. Soluble truncated prostromelysin was purified by a modification of the monoclonal antibody affinity chromatography method described by Housley et al., J. Biol. Chem., 268, 4481-87, 1993.
# The assay is run continuously in a 3.0 ml cuvette using a Perkin-Elmer LS 50 B Spectrofluorimeter at 25° C. in a final volume of 2.0 mls. P218 substrate (10 mM) in 100% DMSO is diluted to a final concentration of 2.0 micromolar (μM) into assay buffer: 50 mM MES, pH 6.5 containing 150 mM NaCl, 10 mM CaCl2, 0.005% Brij-35, and 1%(v/v) DMSO. Test compounds(10 mM) in DMSO are diluted in assay buffer at an initial concentration of 10 to 100 micromolar. […] The reaction is initiated by the addition of recombinant stromelysin (MMP-3) at a final concentration of 1.0 nM. Upon peptide cleavage, the fluorescent MCA group was detected using an excitation wavelength of 328 nanometers and an emission wavelength of 393 nanometers.
# MMP-2 [6] = biological target: T2, MMP-2; test: Secondary P218 Quenched fluorescence Assay for MMP-2 Inhibition; type: biochemical; conditions: P218 substrate, 0.2 nM enzyme; x (n) = average of n determinations; read-out: MMP-2 Fluorogenic IC50
# MMP-9 [7] = biological target: T3, MMP-9; test: Thiopeptilide MMP-9 Inhibition Assay; type: biochemical; conditions: for inhibition at 5 µM: read-out: MMP-9: Thiopep. % inhibition
# inflammation = conditions: R. G. Child et al. 1977; cited from earlier work
# human colon tumor = conditions: intraperitoneally; cited from earlier work
# [8] = system: human ovarian carcinoma xenografts; conditions: mouse, in vivo; cited from earlier work
# T1 sequence (P08254 100-274 limits assumed): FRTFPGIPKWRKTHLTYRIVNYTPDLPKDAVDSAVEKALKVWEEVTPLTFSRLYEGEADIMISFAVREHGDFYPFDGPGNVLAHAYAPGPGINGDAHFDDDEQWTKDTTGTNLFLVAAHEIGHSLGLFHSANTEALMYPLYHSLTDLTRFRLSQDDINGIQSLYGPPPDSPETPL
Structure (SMILES),IC50 (MMP-3 [1]),% Inhibition of Femoral Lesion Surface Area (Femoral Lesion),IC50 (MMP-2 [2]),IC50 (MMP-9 [3]),MMP inhibitory activity (in words) (MMP),also measured
"CCCCCOc1ccc(-c2ccc(C(=O)C[C@H](CCCc3ccccc3)C(=O)O)cc2)cc1 [Example 86, 4-[4-(4-pentyloxyphenyl)phenyl]-4-oxo-2S-(3-phenylpropyl)butanoic acid]",0.051 µM,0%,0.0125 µM,0.442 µM,,
"O=C(C[C@H](CCCc1ccccc1)C(=O)O)c1ccc(-c2ccc(OCc3ccccc3)cc2)cc1 [Example 100, 4-[4-(4-benzyloxyphenyl)phenyl]-4-oxo-2S-(3-phenylpropyl)butanoic acid]",0.017 µM,37.8%,0.014 µM,3.22 µM,,
"O=C(C[C@H](CCCc1ccccc1)C(=O)O)c1ccc(-c2ccc(Cl)cc2)cc1 [Example 116, 4-[4-(4-chlorophenyl)phenyl]-4-oxo-2S-(3-phenylpropyl)butanoic acid]",0.137 µM,0%,0.038 µM,0.185 µM,,
O=C(CC(CCCc1ccccc1)C(=O)O)c1ccc(-c2ccccc2)cc1 (centres unmarked) [Example 135],,,,,low potency,"IC50 (MMP-3 [4]; pH 6.5, 13 nM stromelysin, x (n) = average of n determinations, read-out: MMP-3 Thiopep. IC50): 2.8 µM; IC50 (MMP-3 [5]): 2.8 µM"
"CCN(CC)C(=O)c1cccc(CC[C@@H](CC(=O)c2ccc(-c3ccc(Cl)cc3)cc2)C(=O)O)c1 [Example 145, 4-[4-(4-chlorophenyl)phenyl]-4-oxo-2S-[2-(3-N,N-diethylcarbamoyl)phenyl]butanoic acid]",0.0075 µM,46.4%,0.0021 µM,0.019 µM,,
"O=C(C[C@H](CSc1ccccc1)C(=O)O)c1ccc(-c2ccc(Cl)cc2)cc1 [Example 197, 4-[4-(4-chlorophenyl)phenyl]-4-oxo-2S-(phenylthiomethyl)butanoic acid]",,18%,0.022 µM,,,"IC50 (MMP-2 [6]): 0.026 µM; IC50 (MMP-9 [7]; pH 6.5, x (n) = average of n determinations, read-out: MMP-9: Thiopep. IC50): 0.197 µM"
"CC(=O)SC(CC(=O)c1ccc(Oc2ccc(Cl)cc2)cc1)C(=O)O (stereo not drawn) [Example 254, Benzenebutanoic acid, α-(acetylthio)-4-(4-chlorophenoxy)-γ-oxo-, reference compound]",,,,,very low potency,"inhibition at 5 µM (MMP-3 [4]; at 5 μM, read-out: MMP-3 Thiopep. % inhibition): 10%; inhibition at 5 µM (MMP-9 [7]; at 5 μM): 27%"
"O=C(C[C@H](CCN1C(=O)c2ccccc2C1=O)C(=O)O)c1ccc(-c2ccc(Cl)cc2)cc1 [Example 268, 4-[4-(4-chlorophenyl)phenyl]-4-oxo-2S-(2-phthalimidoethyl)butanoic acid]",0.00573 µM,53%,0.00091 µM,0.00115 µM,most active,
"O=C(C[C@@H](CCN1C(=O)c2ccccc2C1=O)C(=O)O)c1ccc(-c2ccc(Cl)cc2)cc1 [Example 269, 4-[4-(4-chlorophenyl)phenyl]-4-oxo-2R-(2-phthalimidoethyl)butanoic acid]",1.03 µM,,0.165 µM,0.197 µM,less active,
"O=C(O)[C@@H]1[C@@H](C(=O)c2ccc(-c3ccc(Cl)cc3)cc2)CC[C@H]1Sc1ccccc1 [Example 296, (1S,2R,5S)-trans-5-[4-(4-chlorophenyl)phenylcarbonyl]-trans-2-phenylthiocyclopentanecarboxylic acid]",0.044 µM,31%,0.0064 µM,0.111 µM,,
"COC(=O)c1ccccc1S[C@H]1CC[C@H](C(=O)c2ccc(-c3ccc(Cl)cc3)cc2)[C@H]1C(=O)O [Example 299, (1S,2S,5S)-trans-5-[4-(4-chlorophenyl)phenylcarbonyl]-cis-2-(2-methoxycarbonylphenylthio)cyclopentanecarboxylic acid]",0.058 µM,28%,0.052 µM,0.531 µM,,
"O=C(O)[C@H]1[C@H](CN2C(=O)c3ccccc3C2=O)CC[C@@H]1C(=O)c1ccc(-c2ccc(Cl)cc2)cc1 [Example 361, (1S,2R,5S)-trans-5-[4-(4-chlorophenyl)phenylcarbonyl]-trans-2-phthalimidomethylcyclopentanecarboxylic acid]",0.003 µM,,0.00081 µM,0.0005 µM,most active,
"O=C(O)[C@@H]1[C@@H](CN2C(=O)c3ccccc3C2=O)CC[C@H]1C(=O)c1ccc(-c2ccc(Cl)cc2)cc1 [Example 362, (1R,2S,5R)-trans-5-[4-(4-chlorophenyl)phenylcarbonyl]-trans-2-phthalimidomethylcyclopentanecarboxylic acid]",0.431 µM,,0.183 µM,0.1 µM,less active,
O=C(O)CC(C(=O)c1ccc(-c2ccccc2)cc1)c1ccccc1 (centres unmarked) [LXXVII],,,,,,anti-inflammatory activity (literature) (inflammation): inactive
O=C(CC(C(=O)O)c1ccccc1)c1ccc(-c2ccccc2)cc1 (centres unmarked) [XLIV],,,,,,anti-inflammatory activity (literature) (inflammation): inactive
CC(CC(=O)c1ccc(-c2ccccc2)cc1)C(=O)O (centres unmarked) [XLVIII],,,,,,anti-inflammatory activity (literature) (inflammation): inactive
CNC(=O)[C@H](Cc1ccccc1)NC(=O)[C@H](CC(C)C)[C@H](CSc1cccs1)C(=O)NO [batimastat],,,,,,human colon tumor growth and spread (human colon tumor): inhibits human colon tumor growth and spread; survival of mice bearing human ovarian carcinoma xenografts [8]: prolongs the survival
"O=C(O)CCC(=O)c1ccc(-c2ccccc2)cc1 [fenbufen, 3-biphenoylpropanoic acid, reference compound]",,,,,"Only minor activity, at best",IC50 (MMP-2 [6]): 1 µM; inhibition at 5 µM (MMP-9 [7]): 2%

# From US5789434A, “Derivatives of substituted 4-biarylbutyric acid as matrix metalloprotease inhibitors” (priority 1995, dated 1998)
